Measurements from ChEMBL document CHEMBL3588776, “Inhibitors of the human neuraminidase enzymes” (Medchemcomm, 2014).

Molecular target: T1, Sialidase-3 (Homo sapiens, UniProt Q9UQ49)
T1 sequence (Q9UQ49 whole entry): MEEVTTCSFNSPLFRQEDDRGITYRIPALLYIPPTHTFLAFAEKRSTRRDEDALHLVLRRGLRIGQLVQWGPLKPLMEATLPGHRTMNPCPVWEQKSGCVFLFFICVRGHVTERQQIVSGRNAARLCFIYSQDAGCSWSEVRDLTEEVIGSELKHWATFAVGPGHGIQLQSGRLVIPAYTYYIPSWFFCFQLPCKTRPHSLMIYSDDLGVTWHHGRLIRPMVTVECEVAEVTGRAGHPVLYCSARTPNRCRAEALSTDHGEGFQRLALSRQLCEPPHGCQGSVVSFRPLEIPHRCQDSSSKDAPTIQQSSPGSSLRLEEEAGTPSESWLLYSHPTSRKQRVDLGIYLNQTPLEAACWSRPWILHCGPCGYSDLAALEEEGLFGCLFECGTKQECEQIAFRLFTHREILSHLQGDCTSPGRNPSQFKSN
Assay: Inhibition of human recombinant NEU3 expressed in Escherichia coli pre-incubated for 10 mins before addition of followed by the addition of MUNANA substrate

## C#CCCC(=O)N[C@@H]1[C@@H](O)[C@@H](F)[C@](F)(C(=O)O)O[C@H]1[C@H](O)[C@H](O)CO
  IC50: 5 µM
